Source: BigSolDB 2.1

Cn1cnc2c1c(=O)[nH]c(=O)n2C
Conditions	solubility (mole fraction)
in acetone, 288.13 K	1.47e-05
in acetone, 297.99 K	2.23e-05
in acetone, 308.08 K	2.99e-05
in acetone, 318.07 K	4.57e-05
in acetone, 328.17 K	6.77e-05
in ethanol, 288.15 K	1.38e-05
in ethanol, 298.2 K	2.26e-05
in ethanol, 308.19 K	3.85e-05
in ethanol, 318.16 K	6.31e-05
in ethanol, 328.16 K	0.000106
in ethyl acetate, 288.13 K	1.04e-05
in ethyl acetate, 297.99 K	1.59e-05
in ethyl acetate, 308.08 K	2.28e-05
in ethyl acetate, 318.07 K	3.33e-05
in ethyl acetate, 328.17 K	4.94e-05
in methanol, 288.07 K	2.82e-05
in methanol, 298.1 K	4.34e-05
in methanol, 308.93 K	7e-05
in methanol, 318.62 K	0.00011
in methanol, 328.15 K	0.000163
in n-propanol, 288.15 K	1.18e-05
in n-propanol, 298.2 K	2.06e-05
in n-propanol, 308.19 K	3.71e-05
in n-propanol, 318.16 K	6.37e-05
in n-propanol, 328.16 K	0.000109
in water, 288.07 K	3.09e-05
in water, 298.1 K	4.73e-05
in water, 308.93 K	6.93e-05
in water, 318.62 K	0.0001
in water, 328.15 K	0.000145

Cn1c(=O)c2[nH]cnc2n(C)c1=O
Conditions	solubility (mole fraction)
in acetone, 288.02 K	0.000667
in acetone, 298.15 K	0.00093
in acetone, 308.15 K	0.00124
in acetone, 318.15 K	0.00147
in acetone, 328.1 K	0.0018
in ethanol, 288.01 K	0.0008
in ethanol, 297.95 K	0.00116
in ethanol, 308.01 K	0.00173
in ethanol, 318.11 K	0.00254
in ethanol, 328.09 K	0.00319
in ethyl acetate, 288.02 K	0.000502
in ethyl acetate, 298.15 K	0.000673
in ethyl acetate, 308.15 K	0.000901
in ethyl acetate, 318.15 K	0.0011
in ethyl acetate, 328.1 K	0.00141
in methanol, 288.06 K	0.00077
in methanol, 298.16 K	0.00137
in methanol, 308.16 K	0.00217
in methanol, 318.13 K	0.00298
in methanol, 328.19 K	0.00394
in n-propanol, 288.01 K	0.000912
in n-propanol, 297.95 K	0.00136
in n-propanol, 308.01 K	0.00204
in n-propanol, 318.11 K	0.00313
in n-propanol, 328.09 K	0.00423
in water, 288.06 K	0.000325
in water, 298.16 K	0.00063
in water, 308.16 K	0.000991
in water, 318.13 K	0.00141
in water, 328.19 K	0.00216
